Results as given in patent publication US20070254938A1, “Preventive or Therapeutic Agent for Vascular Intimal Proliferative Disease” (priority 2004, published 2007).

Experiments:
[1] = system: intimal hyperplasia of the common carotid artery; assay: Intimal hyperplasia of a blood vessel caused by scraping endothelium of common carotid artery in alloxan-induced diabetic rabbits; assay type: in vivo, Japanese white rabbits; conditions: 3 mg/kg orally once a day for 6 weeks; arteries removed 4 weeks after scraping endothelium; compared to the control group; FIG. 1
Description: Effect on Intimal Hyperplasia of a Blood vessel Caused by Scraping Endothelium of Common Carotid Artery in Rabbits
Diabetic model animals made by administrating alloxan (50 mg/kg) into Japanese white rabbits (body weight: 2.0 to 3.3 kg) were divided into 2 groups; one was a mitiglinide-treated group (n=5) in which mitiglinide calcium hydrate (3 mg/kg) suspended in 0.5% carboxymethylcellulose was administered orally once a day before feeding for 6 weeks from the next day of alloxan-administration to the day before experimental termination, and the other was the control group (n=4) in which 0.5% carboxymethylcellulose was administered in the same way. Two weeks after the alloxan-administration, the endothelium of the right common carotid artery was scraped using a balloon catheter, and then, the incision on the vessel wall was sutured with care not to cause stenosis. […] Four (4) weeks after the operation of scraping endothelium of a blood vessel, the bilateral common carotid arteries were removed, and the intimal, medial and luminal areas of the sections of the arteries were measured using a morphometric analyzer. Fasting plasma glucose levels were measured 2 weeks after the alloxan-administration (on the day of scraping the endothelium) and 6 weeks after the alloxan-administration (on the day of removing the arteries.

[2] = Fasting plasma glucose levels in alloxan-induced diabetic rabbits; assay type: in vivo, Japanese white rabbits; conditions: 3 mg/kg orally once a day
Description: Diabetic model animals made by administrating alloxan (50 mg/kg) into Japanese white rabbits (body weight: 2.0 to 3.3 kg) were divided into 2 groups; one was a mitiglinide-treated group (n=5) in which mitiglinide calcium hydrate (3 mg/kg) suspended in 0.5% carboxymethylcellulose was administered orally once a day before feeding for 6 weeks from the next day of alloxan-administration to the day before experimental termination, and the other was the control group (n=4) in which 0.5% carboxymethylcellulose was administered in the same way. Two weeks after the alloxan-administration, the endothelium of the right common carotid artery was scraped using a balloon catheter, and then, the incision on the vessel wall was sutured with care not to cause stenosis. The left common carotid artery was used as a side of Sham-operation (the normal group). Four (4) weeks after the operation of scraping endothelium of a blood vessel, the bilateral common carotid arteries were removed, and the intimal, medial and luminal areas of the sections of the arteries were measured using a morphometric analyzer. Fasting plasma glucose levels were measured 2 weeks after the alloxan-administration (on the day of scraping the endothelium) and 6 weeks after the alloxan-administration (on the day of removing the arteries.

SMILES: O=C(O)[C@H](CC(=O)N1C[C@H]2CCCC[C@H]2C1)Cc1ccccc1 [mitiglinide calcium hydrate, bis{(2S)-2-benzyl-3-(cis-hexahydro-2-isoindolinylcarbonyl)-propionic acid}calcium dihydrate]
- inhibitory effect on intimal hyperplasia (ratio of intimal area to medial area) [1]: significant inhibitory effect
- influence on fasting plasma glucose level ([2]; 2 weeks after alloxan-administration, FIG. 2): no influence
- influence on fasting plasma glucose level ([2]; 6 weeks after alloxan-administration, FIG. 3): no influence
